Laboratory results as given in ChEMBL document CHEMBL4765227, “Hit to lead optimization of a series of N-[4-(1,3-benzothiazol-2-yl)phenyl]acetamides as monoacylglycerol lipase inhibitors with potential anticancer activity” (Eur J Med Chem, 2016).

How the values were obtained:
Assay type in all cases: functional
Conditions in all cases: read-out: GI
SNB-75 = test: Growth inhibition of human SNB-75 cells at 10 uM incubated for 48 hrs by sulforhodamine B assay relative to control
U-251 = test: Growth inhibition of human U-251 cells at 10 uM incubated for 48 hrs by sulforhodamine B assay relative to control
NCI-H522 = test: Growth inhibition of human NCI-H522 cells at 10 uM incubated for 48 hrs by sulforhodamine B assay relative to control
SW-620 = test: Growth inhibition of human SW-620 cells at 10 uM incubated for 48 hrs by sulforhodamine B assay relative to control
UO-31 = test: Growth inhibition of human UO-31 cells at 10 uM incubated for 48 hrs by sulforhodamine B assay relative to control
NCI/ADR-RES = test: Growth inhibition of human NCI/ADR-RES cells at 10 uM incubated for 48 hrs by sulforhodamine B assay relative to control
TK-10 = test: Growth inhibition of human TK-10 cells at 10 uM incubated for 48 hrs by sulforhodamine B assay relative to control
OVCAR-5 = test: Growth inhibition of human OVCAR-5 cells at 10 uM incubated for 48 hrs by sulforhodamine B assay relative to control
Malme-3M = test: Growth inhibition of human Malme-3M cells at 10 uM incubated for 48 hrs by sulforhodamine B assay relative to control
SNB-19 = test: Growth inhibition of human SNB-19 cells at 10 uM incubated for 48 hrs by sulforhodamine B assay relative to control
T47D = test: Growth inhibition of human T47D cells at 10 uM incubated for 48 hrs by sulforhodamine B assay relative to control
HCT-15 = test: Growth inhibition of human HCT-15 cells at 10 uM incubated for 48 hrs by sulforhodamine B assay relative to control
MDA-MB-231 = test: Growth inhibition of human MDA-MB-231 cells at 10 uM incubated for 48 hrs by sulforhodamine B assay relative to control
MOLT-4 = test: Growth inhibition of human MOLT-4 cells at 10 uM incubated for 48 hrs by sulforhodamine B assay relative to control
RXF 393 = test: Growth inhibition of human RXF 393 cells at 10 uM incubated for 48 hrs by sulforhodamine B assay relative to control
CAKI-1 = test: Growth inhibition of human CAKI-1 cells at 10 uM incubated for 48 hrs by sulforhodamine B assay relative to control
ACHN = test: Growth inhibition of human ACHN cells at 10 uM incubated for 48 hrs by sulforhodamine B assay relative to control
SK-MEL-28 = test: Growth inhibition of human SK-MEL-28 cells at 10 uM incubated for 48 hrs by sulforhodamine B assay relative to control
PC-3 = test: Growth inhibition of human PC-3 cells at 10 uM incubated for 48 hrs by sulforhodamine B assay relative to control
UACC-62 = test: Growth inhibition of human UACC-62 cells at 10 uM incubated for 48 hrs by sulforhodamine B assay relative to control
SN12C = test: Growth inhibition of human SN12C cells at 10 uM incubated for 48 hrs by sulforhodamine B assay relative to control
K562 = test: Growth inhibition of human K562 cells at 10 uM incubated for 48 hrs by sulforhodamine B assay relative to control
M14 = test: Growth inhibition of human M14 cells at 10 uM incubated for 48 hrs by sulforhodamine B assay relative to control
MDA-MB-435 = test: Growth inhibition of human MDA-MB-435 cells at 10 uM incubated for 48 hrs by sulforhodamine B assay relative to control
HOP-62 = test: Growth inhibition of human HOP-62 cells at 10 uM incubated for 48 hrs by sulforhodamine B assay relative to control
SK-MEL-5 = test: Growth inhibition of human SK-MEL-5 cells at 10 uM incubated for 48 hrs by sulforhodamine B assay relative to control
MDA-MB-468 = test: Growth inhibition of human MDA-MB-468 cells at 10 uM incubated for 48 hrs by sulforhodamine B assay relative to control
SK-OV-3 = test: Growth inhibition of human SK-OV-3 cells at 10 uM incubated for 48 hrs by sulforhodamine B assay relative to control
HCT-116 = test: Growth inhibition of human HCT-116 cells at 10 uM incubated for 48 hrs by sulforhodamine B assay relative to control
CCRF-CEM = test: Growth inhibition of human CCRF-CEM cells at 10 uM incubated for 48 hrs by sulforhodamine B assay relative to control
IGROV-1 = test: Growth inhibition of human IGROV-1 cells at 10 uM incubated for 48 hrs by sulforhodamine B assay relative to control
RPMI-8226 = test: Growth inhibition of human RPMI-8226 cells at 10 uM incubated for 48 hrs by sulforhodamine B assay relative to control
KM12 = test: Growth inhibition of human KM12 cells at 10 uM incubated for 48 hrs by sulforhodamine B assay relative to control
A549 = test: Growth inhibition of human A549/ATCC cells at 10 uM incubated for 48 hrs by sulforhodamine B assay relative to control
DU-145 = test: Growth inhibition of human DU-145 cells at 10 uM incubated for 48 hrs by sulforhodamine B assay relative to control
BT-549 = test: Growth inhibition of human BT-549 cells at 10 uM incubated for 48 hrs by sulforhodamine B assay relative to control
NCI-H322M = test: Growth inhibition of human NCI-H322M cells at 10 uM incubated for 48 hrs by sulforhodamine B assay relative to control
HT-29 = test: Growth inhibition of human HT-29 cells at 10 uM incubated for 48 hrs by sulforhodamine B assay relative to control
OVCAR-8 = test: Growth inhibition of human OVCAR-8 cells at 10 uM incubated for 48 hrs by sulforhodamine B assay relative to control
NCI-H226 = test: Growth inhibition of human NCI-H226 cells at 10 uM incubated for 48 hrs by sulforhodamine B assay relative to control
HCC 2998 = test: Growth inhibition of human HCC 2998 cells at 10 uM incubated for 48 hrs by sulforhodamine B assay relative to control
HOP-92 = test: Growth inhibition of human HOP-92 cells at 10 uM incubated for 48 hrs by sulforhodamine B assay relative to control
NCI-H460 = test: Growth inhibition of human NCI-H460 cells at 10 uM incubated for 48 hrs by sulforhodamine B assay relative to control
HL-60(TB) = test: Growth inhibition of human HL-60(TB) cells at 10 uM incubated for 48 hrs by sulforhodamine B assay relative to control

SMILES: CN1CCN(CC(=O)Nc2ccc(-c3nc4ccccc4s3)cc2)CC1
- inhibition of growth at 10 µM (SNB-75): 26.9%
- inhibition of growth at 10 µM (U-251): 32.5%
- inhibition of growth at 10 µM (NCI-H522): 41.1%
- inhibition of growth at 10 µM (SW-620): -2.26%
- inhibition of growth at 10 µM (UO-31): 42.5%
- inhibition of growth at 10 µM (NCI/ADR-RES): 14.4%
- inhibition of growth at 10 µM (TK-10): 5.2%
- inhibition of growth at 10 µM (OVCAR-5): 27.1%
- inhibition of growth at 10 µM (Malme-3M): 1.71%
- inhibition of growth at 10 µM (SNB-19): 10.3%
- inhibition of growth at 10 µM (T47D): 45.9%
- inhibition of growth at 10 µM (HCT-15): 47.1%
- inhibition of growth at 10 µM (MDA-MB-231): 40.2%
- inhibition of growth at 10 µM (MOLT-4): 22%
- inhibition of growth at 10 µM (RXF 393): 45.7%
- inhibition of growth at 10 µM (CAKI-1): 26.5%
- inhibition of growth at 10 µM (ACHN): 28.8%
- inhibition of growth at 10 µM (SK-MEL-28): 66.2%
- inhibition of growth at 10 µM (PC-3): 16.4%
- inhibition of growth at 10 µM (UACC-62): 136%
- inhibition of growth at 10 µM (SN12C): 22.3%
- inhibition of growth at 10 µM (K562): 58.2%
- inhibition of growth at 10 µM (M14): 32.4%
- inhibition of growth at 10 µM (MDA-MB-435): 74.6%
- inhibition of growth at 10 µM (HOP-62): 12.7%
- inhibition of growth at 10 µM (SK-MEL-5): 26.3%
- inhibition of growth at 10 µM (MDA-MB-468): 111%
- inhibition of growth at 10 µM (SK-OV-3): 5.77%
- inhibition of growth at 10 µM (HCT-116): 29.1%
- inhibition of growth at 10 µM (CCRF-CEM): 36.3%
- inhibition of growth at 10 µM (IGROV-1): 19.4%
- inhibition of growth at 10 µM (RPMI-8226): 11.9%
- inhibition of growth at 10 µM (KM12): 14.4%
- inhibition of growth at 10 µM (A549): 11.4%
- inhibition of growth at 10 µM (DU-145): 14.8%
- inhibition of growth at 10 µM (BT-549): 19.4%
- inhibition of growth at 10 µM (NCI-H322M): 22.1%
- inhibition of growth at 10 µM (HT-29): 60.4%
- inhibition of growth at 10 µM (OVCAR-8): 8.74%
- inhibition of growth at 10 µM (NCI-H226): 3.83%
- inhibition of growth at 10 µM (HCC 2998): 22.7%
- inhibition of growth at 10 µM (HOP-92): 64.3%
- inhibition of growth at 10 µM (NCI-H460): 15.3%
- inhibition of growth at 10 µM (HL-60(TB)): 3.63%

SMILES: O=C(CNc1ccc(Cl)cc1)Nc1ccc(-c2nc3ccccc3s2)cc1
- inhibition of growth at 10 µM (SNB-75): 39.9%
- inhibition of growth at 10 µM (U-251): 73.7%
- inhibition of growth at 10 µM (NCI-H522): 194%
- inhibition of growth at 10 µM (SW-620): 77.4%
- inhibition of growth at 10 µM (UO-31): 35%
- inhibition of growth at 10 µM (NCI/ADR-RES): 35.5%
- inhibition of growth at 10 µM (TK-10): -18.4%
- inhibition of growth at 10 µM (OVCAR-5): -21.1%
- inhibition of growth at 10 µM (Malme-3M): 130%
- inhibition of growth at 10 µM (SNB-19): 36.4%
- inhibition of growth at 10 µM (T47D): 95.4%
- inhibition of growth at 10 µM (HCT-15): 114%
- inhibition of growth at 10 µM (MDA-MB-231): 62.4%
- inhibition of growth at 10 µM (MOLT-4): 95.6%
- inhibition of growth at 10 µM (RXF 393): 15.8%
- inhibition of growth at 10 µM (CAKI-1): 79.8%
- inhibition of growth at 10 µM (ACHN): 77.2%
- inhibition of growth at 10 µM (SK-MEL-28): 0.54%
- inhibition of growth at 10 µM (PC-3): 14.7%
- inhibition of growth at 10 µM (UACC-62): 69.9%
- inhibition of growth at 10 µM (SN12C): 53.2%
- inhibition of growth at 10 µM (K562): 88.1%
- inhibition of growth at 10 µM (M14): 55.8%
- inhibition of growth at 10 µM (MDA-MB-435): 37.2%
- inhibition of growth at 10 µM (HOP-62): -16.2%
- inhibition of growth at 10 µM (SK-MEL-5): 75%
- inhibition of growth at 10 µM (MDA-MB-468): 111%
- inhibition of growth at 10 µM (SK-OV-3): 10.2%
- inhibition of growth at 10 µM (HCT-116): 76.7%
- inhibition of growth at 10 µM (CCRF-CEM): 96.8%
- inhibition of growth at 10 µM (IGROV-1): 65.7%
- inhibition of growth at 10 µM (RPMI-8226): 54%
- inhibition of growth at 10 µM (KM12): 19.3%
- inhibition of growth at 10 µM (A549): 11%
- inhibition of growth at 10 µM (DU-145): 29.8%
- inhibition of growth at 10 µM (BT-549): 83.3%
- inhibition of growth at 10 µM (NCI-H322M): 19.7%
- inhibition of growth at 10 µM (HT-29): 52.1%
- inhibition of growth at 10 µM (OVCAR-8): 33.6%
- inhibition of growth at 10 µM (NCI-H226): 41.9%
- inhibition of growth at 10 µM (HCC 2998): 116%
- inhibition of growth at 10 µM (HOP-92): 2.16%
- inhibition of growth at 10 µM (NCI-H460): 12.9%
- inhibition of growth at 10 µM (HL-60(TB)): 29%
